In patent US9181288B2, “Azepane derivatives and methods of treating hepatitis B infections” (Novira Therapeutics, Inc., priority 2014, dated 2015):

Assays:
[1] = molecular target: HBV C150Bo capsid protein (mutant C150 HBV core protein labeled with BODIPY-FL) (Hepatitis B virus genotype D subtype adw, UniProt P03147, C107A/C48A/C61A/R150C); test: HBV assembly assay (fluorescence quenching in vitro capsid assembly); format: biochemical; details: at about 10 μM; 50 mM Hepes pH 7.5, 150 mM NaCl, 1 hour room temperature
Chain of HBV C150Bo capsid protein (mutant C150 HBV core protein labeled with BODIPY-FL) (P03147 1-150 C48A/C61A/C107A/R150C): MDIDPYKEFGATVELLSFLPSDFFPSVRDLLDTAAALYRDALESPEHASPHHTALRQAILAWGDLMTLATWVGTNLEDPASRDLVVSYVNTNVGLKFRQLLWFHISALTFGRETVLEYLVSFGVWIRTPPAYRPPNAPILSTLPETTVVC

[2] = system: HBV replication in HepG2-2.2.15 cells; test: Inhibition of HBV replication dot-blot assay; format: cell-based; details: Hepatitis B virus, 144 h, six days, reduction in HBV DNA levels
Description: Compounds active in the HBV assembly assay are tested for their activity and toxicity in cellular assay. In the first anti-viral assay, the ability of compounds to inhibit HBV replication in an HBV-producing hepatoma cell line using the dot-blot method is evaluated.
Briefly, confluent monolayers of HepG2-2.2.15 cells are incubated with complete medium containing various concentrations of a test compound. Three days later, the culture medium is replaced with fresh medium containing the appropriately diluted test compound. Six days following the initial administration of the test compound, the cell culture supernatant is collected, and cell lysis is performed. The samples are applied onto Nylos membranes and DNA is immobilized to the membrane by UV cross-linking. After pre-hybridization, the HBV probe is added and the hybridization is performed overnight. The membranes are exposed to the Kodak films; antiviral activity is calculated from the reduction in HBV DNA levels (EC50). The EC50 for antiviral activity is calculated from the dose response curves of active compounds. Assay performance over time is monitored by the use of the standard positive control compounds ETV, BAY 41-4109, and HAP-1.
Selected compounds were tested for their activity and toxicity in cellular assay. In the first anti-viral assay, the ability of compounds to inhibit HBV replication in an HBV-producing hepatoma cell line using the dot-blot method was evaluated.
Confluent monolayers of HepG2-2.2.15 cells were incubated with complete medium containing various concentrations of a test compound. Three days later, the culture medium was replaced with fresh medium containing the appropriately diluted test compound. Six days following the initial administration of the test compound, the cell culture supernatant was collected, and cell lysis was performed. The samples were applied onto Nylos membranes and DNA was immobilized to the membrane by UV cross-linking. After pre-hybridization, the HBV probe was added and the hybridization was performed overnight. The membranes were exposed to the Kodak films; antiviral activity was calculated from the reduction in HBV DNA levels (EC50). The EC50 for antiviral activity was calculated from the dose response curves of active compounds. Assay performance over time was monitored by the use of the standard positive control compounds ETV, BAY 41-4109, and HAP-1.

Structure (SMILES)	Activity (HBV assembly assay) [1]	inhibition at 10 µM [2] [%]
O=C(Nc1ccc(F)c(Cl)c1)c1ccc(CF)c(S(=O)(=O)N2CCOCC(O)C2)c1 (centres unmarked) [Compound 1983]	+ (‘+’ indicates >50% activity at about 10 μM)	> 50
CC1(O)COCCN(S(=O)(=O)c2cc(C(=O)Nc3ccc(F)c(Cl)c3)ccc2F)C1 (centres unmarked) [Compound 1986]	+ (‘+’ indicates >50% activity at about 10 μM)	> 50
O=C(Nc1cc(F)c(F)c(F)c1)c1ccc(F)c(S(=O)(=O)N2CCOCC(O)(C3CC3)C2)c1 (centres unmarked) [Compound 1987]	+ (‘+’ indicates >50% activity at about 10 μM)	> 50
O=C(Nc1ccc(F)c(Cl)c1)c1ccc(F)c(S(=O)(=O)N2CCOCC(O)(C3CC3)C2)c1 (centres unmarked) [Compound 1989]	+ (‘+’ indicates >50% activity at about 10 μM)	> 50
O=C(Nc1cc(F)c(F)c(F)c1)c1ccc(CF)c(S(=O)(=O)N2CCCCCC2)c1 [Compound 2002]	+ (‘+’ indicates >50% activity at about 10 μM)	> 50
O=C(Nc1ccc(F)c(Cl)c1)c1ccc(CF)c(S(=O)(=O)N2CCCCCC2)c1 [Compound 2004]	+ (‘+’ indicates >50% activity at about 10 μM)	> 50
CC(=O)OC1CCCCN(S(=O)(=O)c2cc(C(=O)Nc3cc(F)c(F)c(F)c3)ccc2F)C1 (centres unmarked) [Compound 2024]	+ (‘+’ indicates >50% activity at about 10 μM)	> 50
O=C(Nc1ccc(F)c(Cl)c1)c1cc(S(=O)(=O)N2CCCC(O)CC2)c2[nH]cnc2c1 (centres unmarked) [Compound 2033]	+ (‘+’ indicates >50% activity at about 10 μM)	> 50
COc1ccc(C(=O)Nc2ccc(F)c(Cl)c2)cc1S(=O)(=O)N1CCCC(O)C(F)C1 (centres unmarked) [Compound 2114_D1]	+ (‘+’ indicates >50% activity at about 10 μM)	> 50
O=C(Nc1cc(F)c(F)c(F)c1)c1ccc(F)c(S(=O)(=O)N2CCCCC(F)(F)C2)c1 [Compound 2121]	+ (‘+’ indicates >50% activity at about 10 μM)	> 50
O=C(Nc1ccc(F)c(Cl)c1)c1ccc(F)c(S(=O)(=O)N2CCCC(F)CC2)c1 (centres unmarked) [Compound 2123]	+ (‘+’ indicates >50% activity at about 10 μM)	> 50
O=C(Nc1cc(F)c(F)c(F)c1)c1ccc(F)c(S(=O)(=O)N2CCCC(O)C(F)(F)C2)c1 (centres unmarked) [Compound 2199]	+ (‘+’ indicates >50% activity at about 10 μM)	> 50
O=C(Nc1cc(F)c(F)c(F)c1)c1ccc(F)c(S(=O)(=O)N2CCC(O)C(F)(F)CC2)c1 (centres unmarked) [Compound 2202]	+ (‘+’ indicates >50% activity at about 10 μM)	> 50
O=C(Nc1ccc(F)c(Cl)c1)c1ccc(CCF)c(S(=O)(=O)N2CCCC(O)CC2)c1 (centres unmarked) [Compound 2205, N-(3-chloro-4-fluoro-phenyl)-4-(2-fluoroethyl)-3-(4-hydroxyazepan-1-yl)sulfonyl-benzamide]	+ (‘+’ indicates >50% activity at about 10 μM)	> 50
O=C(Nc1cc(F)c(F)c(F)c1)c1ccc(CCF)c(S(=O)(=O)N2CCCC(O)CC2)c1 (centres unmarked) [Compound 2206]	+ (‘+’ indicates >50% activity at about 10 μM)	> 50
O=C(Nc1ccc(F)c(Cl)c1)c1ccc(F)c(S(=O)(=O)N2C[C@H](O)CC[C@@H](O)C2)c1 [Compound 2433_D1]	+ (‘+’ indicates >50% activity at about 10 μM)	> 50
O=C(Nc1ccc(F)c(Cl)c1)c1ccc(F)c(S(=O)(=O)N2C[C@H](O)CC[C@H](O)C2)c1 [Compound 2433_D2, N-(3-chloro-4-fluoro-phenyl)-3-(3,6-dihydroxyazepan-1-yl)sulfonyl-4-fluoro-benzamide]	+ (‘+’ indicates >50% activity at about 10 μM)	> 50
O=C(Nc1ccc(F)c(Cl)c1)c1ccc(F)c(S(=O)(=O)N2CC(O)CC3CC3C2)c1 (centres unmarked) [Compound 2492]	+ (‘+’ indicates >50% activity at about 10 μM)	> 50
O=C(Nc1cc(F)c(F)c(F)c1)c1ccc(CF)c(S(=O)(=O)N2CCOCC(O)(C3CC3)C2)c1 (centres unmarked) [Compound 2505]	+ (‘+’ indicates >50% activity at about 10 μM)	> 50
O=C(Nc1ccc(F)c(F)c1)c1ccc(F)c(S(=O)(=O)N2CC(O)CC3CC3C2)c1 (centres unmarked) [Compound 2547]	+ (‘+’ indicates >50% activity at about 10 μM)	> 50
O=C(Nc1cc(F)c(F)c(F)c1)c1ccc(F)c(S(=O)(=O)N2CC(O)CC3CC3C2)c1 (centres unmarked) [Compound 2548]	+ (‘+’ indicates >50% activity at about 10 μM)	> 50
O=C(Nc1cc(F)c(F)c(F)c1)c1ccc(CF)c(S(=O)(=O)N2CC(O)CC3CC3C2)c1 (centres unmarked) [Compound 2550]	+ (‘+’ indicates >50% activity at about 10 μM)	> 50
O=C(Nc1cc(F)c(F)c(F)c1)c1ccc(F)c(S(=O)(=O)N2C[C@H](O)CC[C@H](O)C2)c1 [Compound 2617_D2]	+ (‘+’ indicates >50% activity at about 10 μM)	> 50
CC(=O)O[C@@H]1CC[C@@H](O)CN(S(=O)(=O)c2cc(C(=O)Nc3cc(F)c(F)c(F)c3)ccc2F)C1 [Compound 2618_D1]	+ (‘+’ indicates >50% activity at about 10 μM)	> 50
CC(=O)O[C@@H]1CC[C@H](O)CN(S(=O)(=O)c2cc(C(=O)Nc3cc(F)c(F)c(F)c3)ccc2F)C1 [Compound 2618_D2]	+ (‘+’ indicates >50% activity at about 10 μM)	> 50
CC(=O)O[C@@H]1CC[C@H](O)CN(S(=O)(=O)c2cc(C(=O)Nc3ccc(F)c(Cl)c3)ccc2F)C1 [Compound 2619_D2]	+ (‘+’ indicates >50% activity at about 10 μM)	> 50
CC(=O)O[C@@H]1CC[C@H](OC(C)=O)CN(S(=O)(=O)c2cc(C(=O)Nc3cc(F)c(F)c(F)c3)ccc2F)C1 [Compound 2625_D2]	+ (‘+’ indicates >50% activity at about 10 μM)	> 50
CC(=O)O[C@@H]1CC[C@H](OC(C)=O)CN(S(=O)(=O)c2cc(C(=O)Nc3ccc(F)c(Cl)c3)ccc2F)C1 [Compound 2626_D2]	+ (‘+’ indicates >50% activity at about 10 μM)	> 50
